Patent publication EP3448864B1, “SILSE[…] TRANSPORT COMPOUNDS” (Technische Universität Darmstadt, priority 2016, dated 2017)

How the values were obtained:
Type in all cases: cell-based
[1] = test system: HeLa-Zellen; experiment: Flow cytometry quantification of cellular uptake; conditions: for Aufnahme in Zellen: summary statement in the description, citing FIG.1A/1B, 2, 3, 4
Text: Um die Aufnahme der Verbindungen in eukaryotische Zellen zu quantifizieren, wurden umfangreiche Durchflusszytometrieuntersuchungen mit den Verbindungen 2 bis 7 (Verbindungen 2 und 5 sind Vergleichsbeispiele) durchgeführt. Ferner wurden auch die aus dem Stand der Technik bekannten zellpenetrierenden Peptide Tat 10, Penetratin 11, Heptaarginin 12 und Decaarginin 13 untersucht. Zu diesem Zweck wurden auch die Peptide mit TAMRA markiert.
Zunächst wurden HeLa-Zellen mit den zu untersuchenden Substanzen bei einer Konzentration von 20 µM in serumfreiem DMEM bei 37°C für 10 Minuten inkubiert. Danach wurden die Zellen dreimal mit PBS gewaschen und nach einem Trypsinverdau nochmals mit PBS gewaschen. Danach wurden die Untersuchungen durchgeführt. […] Die Ergebnisse sind in FIG.2 zusammen gefasst.

[2] = test system: HeLa-Zellen; experiment: Cell proliferation test (MTT) after short incubation; conditions: free drug in PBS pH 5,5, different concentrations, 1, 2 and 3 h incubation, 1x10^4 HeLa cells, MTT after 18 h
Text: Um die Toxizität von Doxorubicin auf HeLa-Zellen zu untersuchen, wurde ein Inkubationszeitabhängiger Test mit dem freien Wirkstoff durchgeführt. Dafür wurde Doxorubicin in PBS bei pH 5,5 gelöst und bei unterschiedlichen Konzentrationen für 1 Stunde, 2 Stunden und 3 Stunden mit 1x10^4 HeLa-Zellen inkubiert. Nach dem Inkubieren wurden die Zellen mit DMEM gewaschen und nach 18 Stunden ein Zellproliferationstest (MTT) durchgeführt.
Danach wurde die oben gezeigte erfindungsgemäße Verbindung mit Doxorubicin als Cargo-Molekülstruktur getestet. Die Verbindung wurde - genau wie die Kontrollen (freies Doxorubicin, unbehandelte Zellen) -je dreifach bei gleicher Konzentration für eine Stunde inkubiert. Um die Disulfidbrücke zu schützen wurden die Zellen mit hoch-glucosehaltigem DMEM ohne Methionin, Cysteine und Glutamine gewaschen. Nach der Inkubation wurden die Zellen mit DMEM gewaschen und nach 18 Stunden wurde ein MTT-Assay durchgeführt. […] Die Ergebnisse sind in FIG.6 zusammen gefasst.

[3] = test system: HeLa-Zellen; experiment: Study of the uptake mechanism (temperature, concentration, serum) by fluorescence
Protocol: Es wurden weitere Fluoreszenzuntersuchungen an Verbindung 4 durchgeführt. […] Daraus kann angenommen werden, dass der Mechanismus energieunabhängig verläuft.
Ferner wurden HeLa-Zellen mit der Verbindung 4 bei unterschiedlichen Konzentrationen inkubiert. Schon bei 80 nM wurde eine Aufnahme in die Zellen beobachtet. Bei 1 µM wurde der größte Effekt beobachtet.
Darüber hinaus wurde untersucht, ob Serum die Aufnahme in die Zellen behindern kann. Dafür wurde die Inkubationslösung mit 2% fetalem Kälberserum versetzt.

[4] = HeLa cells incubated at different concentrations

## TAMRA-hepta-4-guanidinobuttersäure-COSS-amid [Verbindung 7]
[1]
  Aufnahme in Zellen: besonders ausgeprägte Aufnahme in Zellen

## TAMRA-heptatrimethylammonium-COSS [Verbindung 3]
[1]
  Aufnahme in Zellen: besonders ausgeprägte Aufnahme in Zellen

## COc1cccc2c1C(=O)c1c(O)c3c(c(O)c1C2=O)C[C@@](O)(C(=O)CO)C[C@@H]3O[C@H]1C[C@H](N)[C@H](O)[C@H](C)O1 [Doxorubicin, reference compound]
[2]
  Toxizität auf HeLa-Zellen: mit längerer Inkubation nahm die Toxizität zu

## TAMRA-hepta-4-trimethylammoniumbuttersäure-COSS-amid [Verbindung 6]
[1]
  Aufnahme in Zellen: besonders ausgeprägte Aufnahme in Zellen

## TAMRA-heptaguanidin-COSS [Verbindung 4]
[1]; 20 µM, serum-free DMEM, 37°C, 10 min, fold versus TAMRA-labelled Tat peptide
  Aufnahme stärker ausgeprägt als die des Tat-Peptids: 155 mal
[1]; 20 µM, serum-free DMEM, 37°C, 10 min, ranking among compounds 2 to 7 and TAMRA-labelled peptides 10 to 13, FIG.2
  Aufnahme: beste Aufnahme
[1]
  Aufnahme in Zellen: besonders ausgeprägte Aufnahme in Zellen
[3]; [4]
  Konzentration, bei der der größte Effekt beobachtet wurde: 1 µM
  Konzentration, bei der schon eine Aufnahme in die Zellen beobachtet wurde: 80 nM
[3]; incubation at 37°C versus 4°C
  Aufnahme bei den unterschiedlichen Temperaturen: kaum unterschiedlich
[3]; incubation solution with 2% fetal calf serum versus serum-free tests
  Einfluss von Serum auf die Aufnahme in die Zellen: kein Unterschied
